This passage reports IC50 results from ChEMBL document CHEMBL2396642, “Discovery of novel series of 6-benzyl substituted 4-aminocarbonyl-1,4-diazepane-2,5-diones as human chymase inhibitors using structure-based drug design” (Bioorg Med Chem, 2013).

As usually defined, the IC50 is the point on the concentration scale where inhibition reaches its midpoint. Low values mean greater potency in that assay, high ones weaker potency in that assay.

One experiment addresses T1, Neutrophil elastase (Homo sapiens, UniProt P08246).
T1 sequence (P08246 whole entry): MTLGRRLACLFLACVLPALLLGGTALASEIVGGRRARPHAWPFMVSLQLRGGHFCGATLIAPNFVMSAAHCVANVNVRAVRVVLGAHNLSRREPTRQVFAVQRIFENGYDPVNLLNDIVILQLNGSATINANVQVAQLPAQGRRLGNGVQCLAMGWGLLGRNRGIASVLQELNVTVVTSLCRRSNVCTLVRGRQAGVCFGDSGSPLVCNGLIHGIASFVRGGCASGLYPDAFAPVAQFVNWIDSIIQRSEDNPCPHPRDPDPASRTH
Put plainly: Inhibition of human neutrophil elastase using MeOSuc-Ala-Ala-Pro-Val-pNA as substrate preincubated for 10 mins followed by substrate addition measured after 10 mins by fluorescence assay.

Another experiment concerns the target T2, Cathepsin G (Homo sapiens, UniProt P08311).
T2 sequence (P08311 whole entry): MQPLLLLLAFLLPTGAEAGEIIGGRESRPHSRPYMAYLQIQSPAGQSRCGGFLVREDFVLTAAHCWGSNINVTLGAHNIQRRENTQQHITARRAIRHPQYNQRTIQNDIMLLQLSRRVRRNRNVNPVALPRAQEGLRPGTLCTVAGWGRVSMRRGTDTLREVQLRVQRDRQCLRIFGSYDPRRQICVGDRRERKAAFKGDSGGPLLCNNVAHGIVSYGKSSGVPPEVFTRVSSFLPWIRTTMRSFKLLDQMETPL
In words: Inhibition of human neutrophil cathepsin G using Boc-Gln-Ala-Arg-MCA as substrate preincubated for 10 mins followed by substrate addition measured after 10 mins by fluorescence assay.

Experiment [1] can be described thus: Inhibition of bovine pancreatic alpha-chymotrypsin using Suc-Ala-Ala-Pro-Phe-MCA as substrate preincubated for 10 mins followed by substrate addition measured after 10 mins by fluorescence assay. Set-up: species or system Bos taurus.

In the case of `CC[C@@H](NC(=O)N1CC(=O)NCC(Cc2cc(Cl)ccc2OC)C1=O)C(=O)Nc1cccc(C(=O)O)c1` (some centres undefined), the half-inhibitory concentration (IC50) is > 10 µM at Neutrophil elastase, 8.5 µM against Cathepsin G and > 10 µM in experiment [1].
With `CC[C@@H](NC(=O)N1CC(=O)NCC(Cc2cc(Cl)ccc2OC)C1=O)C(=O)Nc1cccc(N)c1` (some centres undefined), the IC50 (on Neutrophil elastase; against Cathepsin G; in experiment [1]) was > 10 µM in each case.
As to `CC[C@@H](NC(=O)N1CC(=O)NCC(Cc2cc(Cl)ccc2OC)C1=O)C(=O)Nc1nnn[nH]1` (some centres undefined), the IC50 (against Neutrophil elastase; against Cathepsin G; in experiment [1]) was > 10 µM each time.
In the case of `CC[C@@H](NC(=O)N1CC(=O)NC[C@@H](Cc2cc(Cl)ccc2OC)C1=O)c1cc(C(=O)O)co1`, the half-inhibitory concentration (IC50) at Neutrophil elastase was > 100 µM; on Cathepsin G, 7.8 µM; in experiment [1], > 88 µM.
Regarding `CC[C@@H](NC(=O)N1CC(=O)NC[C@@H](Cc2cc(Cl)ccc2OC)C1=O)c1ccc(C(=O)O)c(N)c1`, the IC50 was 100 µM against Neutrophil elastase and > 100 µM in experiment [1].
